# Assay results from US20160376605A1, “WHEAT PLANTS HAVING INCREASED TOLERANCE TO IMIDAZOLINONE HERBICIDES” (BASF SE, priority 2003, published 2016).
# Legend:
# Assay in all cases: Field Trials (2): tolerance scores at two rates of imazamox
# Type in all cases: in vivo
# [1] = test system: Durum wheat M3:4 lines derived from M2 plant UT19; details: UT19, range across M3:4 lines
# Source text: (§1) One hundred ten M3:4 lines derived from sixteen M2 plants were screened at 71 g/ha and 160 g/ha imazamox. The number of M4 lines per M2 plant varied from one to twenty. Tolerance of M3:4 lines was compared to untreated plots of the same line as well as to treated plots of a wild-type cultivar from which some of them were derived.
# (§2) All tested lines survived at both rates of herbicide treatment, whereas all plants of the wild type were killed at both rates. Based on comparison to the wild type line, all lines tested expressed considerable tolerance to the applied rates, particularly when looking at height reduction relative to untreated plots. A rate of 35 g/ha imazamox is adequate to kill susceptible durum wheat.
# [2] = test system: Durum wheat M3:4 lines derived from M2 plant UT12; details: UT12, range across M3:4 lines
# Source text: as §1, §2
# [3] = test system: Wild Type durum wheat cultivar; details: for % Chlorosis / % Height Reduction: Wild Type
# Source text: as §1, §2
# [4] = test system: Durum wheat M3:4 lines derived from M2 plant UT01; details: UT01, range across M3:4 lines
# Source text: as §1, §2
# [5] = test system: Durum wheat M3:4 lines derived from M2 plant UT13; details: UT13, range across M3:4 lines
# Source text: as §1, §2
# [6] = test system: Durum wheat M3:4 lines derived from M2 plant UT15; details: UT15, range across M3:4 lines
# Source text: as §1, §2
# [7] = test system: Durum wheat M3:4 lines derived from M2 plant UT07; details: UT07, range across M3:4 lines
# Source text: as §1, §2
# [8] = test system: Durum wheat M3:4 lines derived from M2 plant UT20; details: UT20, range across M3:4 lines
# Source text: as §1, §2
# [9] = test system: Durum wheat M3:4 lines derived from M2 plant UT08; details: UT08, range across M3:4 lines
# Source text: as §1, §2
# [10] = test system: Durum wheat M3:4 lines derived from M2 plant UT17; details: UT17, range across M3:4 lines
# Source text: as §1, §2
# [11] = test system: Durum wheat M3:4 lines derived from M2 plant UT16; details: UT16, range across M3:4 lines
# Source text: as §1, §2
# [12] = test system: Durum wheat M3:4 lines derived from M2 plant UT10; details: UT10, range across M3:4 lines
# Source text: as §1, §2
# [13] = test system: Durum wheat M3:4 lines derived from M2 plant UT14; details: UT14, range across M3:4 lines
# Source text: as §1, §2
structure (smiles),measurement,setting,value
COCc1cnc(C2=NC(C)(C(C)C)C(=O)N2)c(C(=O)O)c1 (centres unmarked) [imazamox],% Chlorosis,"[1]; imazamox 71 g/ha, 14 DAT",30-40%
same,% Height Reduction,"[1]; imazamox 71 g/ha, 14 DAT",0-10%
same,% Chlorosis,"[1]; imazamox 71 g/ha, 30 DAT",0%
same,% Height Reduction,"[1]; imazamox 71 g/ha, 30 DAT",5-20%
same,% Chlorosis,"[1]; imazamox 160 g/ha, 14 DAT",40%
same,% Height Reduction,"[1]; imazamox 160 g/ha, 14 DAT",0-10%
same,% Chlorosis,"[1]; imazamox 160 g/ha, 30 DAT",0-5%
same,% Height Reduction,"[1]; imazamox 160 g/ha, 30 DAT",10-20%
same,% Chlorosis,"[2]; imazamox 71 g/ha, 14 DAT",0-10%
same,% Height Reduction,"[2]; imazamox 71 g/ha, 14 DAT",0-10%
same,% Chlorosis,"[2]; imazamox 71 g/ha, 30 DAT",0-5%
same,% Height Reduction,"[2]; imazamox 71 g/ha, 30 DAT",0-10%
same,% Chlorosis,"[2]; imazamox 160 g/ha, 14 DAT",10-15%
same,% Height Reduction,"[2]; imazamox 160 g/ha, 14 DAT",10-20%
same,% Chlorosis,"[2]; imazamox 160 g/ha, 30 DAT",5-10%
same,% Height Reduction,"[2]; imazamox 160 g/ha, 30 DAT",5-10%
same,% Chlorosis,"[3]; imazamox 71 g/ha, 14 DAT",90%
same,% Height Reduction,"[3]; imazamox 71 g/ha, 14 DAT",100%
same,% Chlorosis,"[3]; imazamox 71 g/ha, 30 DAT",100%
same,% Height Reduction,"[3]; imazamox 71 g/ha, 30 DAT",100%
same,% Chlorosis,"[3]; imazamox 160 g/ha, 14 DAT",90%
same,% Height Reduction,"[3]; imazamox 160 g/ha, 14 DAT",100%
same,% Chlorosis,"[3]; imazamox 160 g/ha, 30 DAT",100%
same,% Height Reduction,"[3]; imazamox 160 g/ha, 30 DAT",100%
same,survival of wild type plants,"[3]; imazamox 71 g/ha and 160 g/ha (both rates), all plants of the wild type",killed
same,% Chlorosis,"[4]; imazamox 71 g/ha, 14 DAT",0-10%
same,% Height Reduction,"[4]; imazamox 71 g/ha, 14 DAT",0%
same,% Chlorosis,"[4]; imazamox 71 g/ha, 30 DAT",0%
same,% Height Reduction,"[4]; imazamox 71 g/ha, 30 DAT",0-10%
same,% Chlorosis,"[4]; imazamox 160 g/ha, 14 DAT",1-10%
same,% Height Reduction,"[4]; imazamox 160 g/ha, 14 DAT",0%
same,% Chlorosis,"[4]; imazamox 160 g/ha, 30 DAT",0-5%
same,% Height Reduction,"[4]; imazamox 160 g/ha, 30 DAT",0-20%
same,% Chlorosis,"[5]; imazamox 71 g/ha, 14 DAT",5%
same,% Height Reduction,"[5]; imazamox 71 g/ha, 14 DAT",0-10%
same,% Chlorosis,"[5]; imazamox 71 g/ha, 30 DAT",5%
same,% Height Reduction,"[5]; imazamox 71 g/ha, 30 DAT",5%
same,% Chlorosis,"[5]; imazamox 160 g/ha, 14 DAT",5%
same,% Height Reduction,"[5]; imazamox 160 g/ha, 14 DAT",0-10%
same,% Chlorosis,"[5]; imazamox 160 g/ha, 30 DAT",5-10%
same,% Height Reduction,"[5]; imazamox 160 g/ha, 30 DAT",5%
same,% Chlorosis,"[6]; imazamox 71 g/ha, 14 DAT",30-70%
same,% Height Reduction,"[6]; imazamox 71 g/ha, 14 DAT",0-10%
same,% Chlorosis,"[6]; imazamox 71 g/ha, 30 DAT",0-10%
same,% Height Reduction,"[6]; imazamox 71 g/ha, 30 DAT",5-20%
same,% Chlorosis,"[6]; imazamox 160 g/ha, 14 DAT",30-70%
same,% Height Reduction,"[6]; imazamox 160 g/ha, 14 DAT",0-10%
same,% Chlorosis,"[6]; imazamox 160 g/ha, 30 DAT",0-15%
same,% Height Reduction,"[6]; imazamox 160 g/ha, 30 DAT",5-30%
same,% Chlorosis,"[7]; imazamox 71 g/ha, 14 DAT",0-5%
same,% Height Reduction,"[7]; imazamox 71 g/ha, 14 DAT",0-10%
same,% Chlorosis,"[7]; imazamox 71 g/ha, 30 DAT",0-10%
same,% Height Reduction,"[7]; imazamox 71 g/ha, 30 DAT",0-5%
same,% Chlorosis,"[7]; imazamox 160 g/ha, 14 DAT",5-10%
same,% Height Reduction,"[7]; imazamox 160 g/ha, 14 DAT",0-10%
same,% Chlorosis,"[7]; imazamox 160 g/ha, 30 DAT",5-15%
same,% Height Reduction,"[7]; imazamox 160 g/ha, 30 DAT",0-10%
same,% Chlorosis,"[8]; imazamox 71 g/ha, 14 DAT",0-5%
same,% Height Reduction,"[8]; imazamox 71 g/ha, 14 DAT",0%
same,% Chlorosis,"[8]; imazamox 71 g/ha, 30 DAT",0%
same,% Height Reduction,"[8]; imazamox 71 g/ha, 30 DAT",5-10%
same,% Chlorosis,"[8]; imazamox 160 g/ha, 14 DAT",5-10%
same,% Height Reduction,"[8]; imazamox 160 g/ha, 14 DAT",0-20%
same,% Chlorosis,"[8]; imazamox 160 g/ha, 30 DAT",0%
same,% Height Reduction,"[8]; imazamox 160 g/ha, 30 DAT",10-15%
same,% Chlorosis,"[9]; imazamox 71 g/ha, 14 DAT",0-10%
same,% Height Reduction,"[9]; imazamox 71 g/ha, 14 DAT",0-10%
same,% Chlorosis,"[9]; imazamox 71 g/ha, 30 DAT",0-10%
same,% Height Reduction,"[9]; imazamox 71 g/ha, 30 DAT",0-10%
same,% Chlorosis,"[9]; imazamox 160 g/ha, 14 DAT",0-10%
same,% Height Reduction,"[9]; imazamox 160 g/ha, 14 DAT",0-10%
same,% Chlorosis,"[9]; imazamox 160 g/ha, 30 DAT",0-15%
same,% Chlorosis,"[10]; imazamox 71 g/ha, 14 DAT",5-20%
same,% Height Reduction,"[10]; imazamox 71 g/ha, 14 DAT",0-20%
same,% Chlorosis,"[10]; imazamox 71 g/ha, 30 DAT",0%
same,% Height Reduction,"[10]; imazamox 71 g/ha, 30 DAT",5-20%
same,% Chlorosis,"[10]; imazamox 160 g/ha, 14 DAT",5-30%
same,% Height Reduction,"[10]; imazamox 160 g/ha, 14 DAT",0-30%
same,% Chlorosis,"[10]; imazamox 160 g/ha, 30 DAT",0-5%
same,% Height Reduction,"[10]; imazamox 160 g/ha, 30 DAT",5-30%
same,% Chlorosis,"[11]; imazamox 71 g/ha, 14 DAT",5-10%
same,% Height Reduction,"[11]; imazamox 71 g/ha, 14 DAT",0%
same,% Chlorosis,"[11]; imazamox 71 g/ha, 30 DAT",0%
same,% Height Reduction,"[11]; imazamox 71 g/ha, 30 DAT",0-10%
same,% Chlorosis,"[11]; imazamox 160 g/ha, 14 DAT",10-20%
same,% Height Reduction,"[11]; imazamox 160 g/ha, 14 DAT",0-10%
same,% Chlorosis,"[11]; imazamox 160 g/ha, 30 DAT",0-5%
same,% Height Reduction,"[11]; imazamox 160 g/ha, 30 DAT",0-10%
same,% Chlorosis,"[12]; imazamox 71 g/ha, 14 DAT",5-10%
same,% Height Reduction,"[12]; imazamox 71 g/ha, 14 DAT",0-10%
same,% Chlorosis,"[12]; imazamox 71 g/ha, 30 DAT",5%
same,% Height Reduction,"[12]; imazamox 71 g/ha, 30 DAT",0-5%
same,% Chlorosis,"[12]; imazamox 160 g/ha, 14 DAT",10%
same,% Height Reduction,"[12]; imazamox 160 g/ha, 14 DAT",0-20%
same,% Chlorosis,"[12]; imazamox 160 g/ha, 30 DAT",5%
same,% Height Reduction,"[12]; imazamox 160 g/ha, 30 DAT",0-10%
same,% Chlorosis,"[13]; imazamox 71 g/ha, 14 DAT",5-10%
same,% Height Reduction,"[13]; imazamox 71 g/ha, 14 DAT",0%
same,% Chlorosis,"[13]; imazamox 71 g/ha, 30 DAT",0%
same,% Height Reduction,"[13]; imazamox 71 g/ha, 30 DAT",0-10%
same,% Chlorosis,"[13]; imazamox 160 g/ha, 14 DAT",10%
same,% Height Reduction,"[13]; imazamox 160 g/ha, 14 DAT",0-10%
same,% Chlorosis,"[13]; imazamox 160 g/ha, 30 DAT",0%
same,% Height Reduction,"[13]; imazamox 160 g/ha, 30 DAT",0-10%
